Test results from PMC3759464 (PLoS ONE, 2013).
Read-outs that look alike come from different tables or passages of the source.

Columns and labels:
hH4R [1] = biological target: T1, hH4R (Homo sapiens, UniProt Q9H3N8); test: cell-based; design: gene HRH4; SF-hH4R-His6: cleavable influenza hemagglutinin signal peptide and FLAG, hexahistidine tag; stably expressed in HEK293T with CRE-luc2P reporter; settings: HEK293T-CRE-Luc stably expressing SF-H4R-His6, read-out: hH4R / α
hH4R [2] = biological target: T1, hH4R; test: cell-based; design: gene HRH4
rH4R [3] = biological target: T2, rH4R (Rattus norvegicus, UniProt Q91ZY1); test: cell-based; design: gene Hrh4; SF-rH4R-His6: cleavable influenza hemagglutinin signal peptide and FLAG, hexahistidine tag; GTPgammaS: Sf9 membranes co-expressing Galphai2 and Gbeta1gamma2; species or system HEK293T; CRE-luciferase reporter gene assay, inhibition of forskolin-stimulated luminescence, agonist mode; settings: HEK-293T, read-out: rH4R / α
T2 sequence (Q91ZY1 whole entry): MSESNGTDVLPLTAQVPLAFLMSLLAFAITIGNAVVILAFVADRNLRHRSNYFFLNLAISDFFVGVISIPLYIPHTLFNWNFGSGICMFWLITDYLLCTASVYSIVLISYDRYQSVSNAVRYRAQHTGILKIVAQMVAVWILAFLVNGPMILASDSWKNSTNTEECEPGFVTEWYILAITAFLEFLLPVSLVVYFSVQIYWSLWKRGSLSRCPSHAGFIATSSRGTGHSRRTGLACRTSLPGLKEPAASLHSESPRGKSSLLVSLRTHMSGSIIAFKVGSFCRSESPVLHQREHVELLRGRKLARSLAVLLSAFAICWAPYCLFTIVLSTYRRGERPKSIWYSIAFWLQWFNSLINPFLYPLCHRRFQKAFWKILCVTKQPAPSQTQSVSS

mH4R [4] = biological target: T3, mH4R (Mus musculus, UniProt Q91ZY2); test: cell-based; design: gene Hrh4; settings: HEK293T-CRE-Luc stably expressing SF-H4R-His6, read-out: mH4R / α / −0.23±0.03
T3 sequence (Q91ZY2 1-391): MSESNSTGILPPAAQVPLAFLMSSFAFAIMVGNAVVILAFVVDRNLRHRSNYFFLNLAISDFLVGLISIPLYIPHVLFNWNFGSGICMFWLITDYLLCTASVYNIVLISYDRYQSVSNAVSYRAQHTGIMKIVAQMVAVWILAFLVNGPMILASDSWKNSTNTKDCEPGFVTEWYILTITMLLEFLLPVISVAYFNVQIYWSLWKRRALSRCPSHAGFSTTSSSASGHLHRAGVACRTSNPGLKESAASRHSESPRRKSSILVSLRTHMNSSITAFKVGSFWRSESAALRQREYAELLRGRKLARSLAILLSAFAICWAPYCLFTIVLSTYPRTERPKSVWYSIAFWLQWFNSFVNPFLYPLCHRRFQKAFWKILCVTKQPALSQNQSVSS

mH4R [5] = biological target: T3, mH4R; test: cell-based; design: gene Hrh4; SF-mH4R-His6: cleavable influenza hemagglutinin signal peptide and FLAG, hexahistidine tag; GTPgammaS: Sf9 membranes co-expressing Galphai2 and Gbeta1gamma2; species or system HEK293T-CRE-Luc stably expressing SF-H4R-His6
mH4R [6] = biological target: T3, mH4R; test: CRE-luciferase reporter gene assay, HEK293T; format: cell-based; design: gene Hrh4; SF-mH4R-His6: cleavable influenza hemagglutinin signal peptide and FLAG, hexahistidine tag; settings: for EC50: read-out: mH4R / pEC50 or (pKB) (converted); for mH4R / pEC50 or (pKB): 1 µM forskolin, 5 h, 37 °C, agonist mode
rH4R [7] = biological target: T2, rH4R; test: CRE-luciferase reporter gene assay, HEK293T; format: cell-based; design: gene Hrh4; SF-rH4R-His6: cleavable influenza hemagglutinin signal peptide and FLAG, hexahistidine tag; settings: for EC50: read-out: rH4R / pEC50 or (pKB) (converted); for rH4R / pEC50 or (pKB): 1 µM forskolin, 5 h, 37 °C, agonist mode
rH4R [8] = biological target: T2, rH4R; test: […]GTPγS binding, Sf9 membranes; format: biochemical; design: gene Hrh4; SF-rH4R-His6: cleavable influenza hemagglutinin signal peptide and FLAG, hexahistidine tag; GTPgammaS: Sf9 membranes co-expressing Galphai2 and Gbeta1gamma2; settings: read-out: rH4R / pEC50 or (pKB) (converted)
rH4R [9] = biological target: T2, rH4R; test: cell-based; design: gene Hrh4
mH4R [10] = biological target: T3, mH4R; test: […]GTPγS binding, Sf9 membranes; format: biochemical; design: gene Hrh4; SF-mH4R-His6: cleavable influenza hemagglutinin signal peptide and FLAG, hexahistidine tag; GTPgammaS: Sf9 membranes co-expressing Galphai2 and Gbeta1gamma2; settings: read-out: mH4R / pEC50 or (pKB) (converted)
rH4R [11] = biological target: T2, rH4R; test: CRE-luciferase reporter gene assay, HEK293T; format: cell-based; design: gene Hrh4; SF-rH4R-His6: cleavable influenza hemagglutinin signal peptide and FLAG, hexahistidine tag; settings: read-out: rH4R / pEC50 or (pKB) (converted)
hH4R [12] = biological target: T1, hH4R; test: cell-based; design: gene HRH4; SF-hH4R-His6: cleavable influenza hemagglutinin signal peptide and FLAG, hexahistidine tag; stably expressed in HEK293T with CRE-luc2P reporter; species or system HEK293T; CRE-luciferase reporter gene assay, inhibition of forskolin-stimulated luminescence, agonist mode; settings: HEK-293T, read-out: hH4R / α
rH4R [13] = biological target: T2, rH4R; test: cell-based; design: gene Hrh4; settings: HEK293T-CRE-Luc stably expressing SF-H4R-His6, read-out: rH4R / α
[14] = HEK293T-CRE-Luc stably expressing SF-H4R-His6, read-out: mH4R / α
[15] = HEK293T-CRE-Luc stably expressing SF-H4R-His6, read-out: rH4R / α
[16] = HEK293T-CRE-Luc stably expressing SF-H4R-His6, read-out: hH4R / α / −0.32±0.04 / −0.39±0.03

T1 sequence (Q9H3N8 whole entry): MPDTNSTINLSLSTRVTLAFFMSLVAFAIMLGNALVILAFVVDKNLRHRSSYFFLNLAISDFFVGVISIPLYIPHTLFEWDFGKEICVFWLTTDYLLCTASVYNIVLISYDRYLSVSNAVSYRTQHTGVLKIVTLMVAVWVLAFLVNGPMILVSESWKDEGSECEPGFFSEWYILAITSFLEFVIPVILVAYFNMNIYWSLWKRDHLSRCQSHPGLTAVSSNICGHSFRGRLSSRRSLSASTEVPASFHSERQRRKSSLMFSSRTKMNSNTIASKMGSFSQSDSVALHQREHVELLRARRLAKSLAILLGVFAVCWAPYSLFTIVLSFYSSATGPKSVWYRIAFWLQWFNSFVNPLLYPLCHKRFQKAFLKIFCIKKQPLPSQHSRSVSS

Compound	Emax (hH4R [1])	Emax (mH4R [5]; [14])	EC50 (mH4R [6])	EC50 (rH4R [7])	Emax (rH4R [9]; [15])	further results
CN1CCN(C2=Nc3cc(Cl)ccc3Nc3ccccc32)CC1 [compound 17, Clozapine]	130 ± 5%					
S=C(NC1CCCCC1)N1CCC(c2c[nH]cn2)CC1 [compound 20, Thioperamide]						Emax (hH4R [2]; HEK293T-CRE-Luc stably expressing SF-H4R-His6, read-out: hH4R / α / −0.31±0.06): -32 ± 4%; Emax (rH4R [3]): -20 ± 2%; Emax (mH4R [4]): -44 ± 2%
NC(=NCc1ccc(Cl)cc1)SCCCc1cnc[nH]1 [compound 9, Clobenpropit]	97 ± 3%	55 ± 5%	0.186 µM	0.158 µM	37 ± 3%	Kb (rH4R [8]): 0.501 µM
C[C@H](N)Cc1c[nH]cn1 [compound 3, (S)-α-Methylhistamine]	90 ± 4%	82 ± 7%			69 ± 3%	mH4R / pEC50 or (pKB) (mH4R [6]): 4.72±0.16; rH4R / pEC50 or (pKB) (rH4R [7]): 4.26±0.04
c1ccc(COCCCc2c[nH]cn2)cc1 [compound 11, Proxyfan]	68 ± 2%	88 ± 4%	0.794 µM	2.14 µM		Emax (rH4R [9]; HEK293T-CRE-Luc stably expressing SF-H4R-His6, read-out: rH4R / α / −0.01±0.06): 76 ± 3%
N=C(N)SCCc1cnc[nH]1 [compound 8, Imetit]	94 ± 2%	96 ± 2%	0.0389 µM	0.0617 µM	95 ± 1%	
N#C/N=C(/NCCCCc1c[nH]cn1)NCCSc1ccccc1 [compound 14, 2-cyano-1-[4-(1H-imidazol-4-yl)butyl]-3-[(2-phenylthio)ethyl]guanidine]			0.245 µM			Kb (mH4R [10]): 0.794 µM; Kb (rH4R [11]): 7.08 µM
CN1CCN(c2cc(N3Cc4ccccc4C3)nc(N)n2)CC1 [compound 21, ST-1012]			0.0324 µM	0.00759 µM		Emax (hH4R [2]; HEK293T-CRE-Luc stably expressing SF-H4R-His6, read-out: hH4R / α / −0.31±0.06 / −0.32±0.04): -39 ± 3%; Emax (mH4R [5]; HEK293T-CRE-Luc stably expressing SF-H4R-His6, read-out: mH4R / α / −0.23±0.03 / −0.44±0.02): 24 ± 5%; Emax (rH4R [9]; HEK293T-CRE-Luc stably expressing SF-H4R-His6, read-out: rH4R / α / −0.20±0.02): 24 ± 7%
c1cc(Cc2cnc[nH]2)ccn1 [compound 7, Immethridine]	65 ± 2%	87 ± 2%	1.12 µM	1.58 µM	94 ± 1%	
Cc1nc[nH]c1CCN [compound 5, 5(4)-Methylhistamine]	97 ± 3%	97 ± 2%	0.135 µM	0.933 µM	100 ± 3%	
c1ncc(CCCC2CCNCC2)[nH]1 [compound 18, VUF 5681]		42 ± 2%	6.31 µM			Emax (hH4R [12]): 9%
NCCc1c[nH]cn1 [compound 1, Histamine]	100%	100%			100%	
Nc1nc2c(c(N3CC[C@@H](N)C3)n1)CCCc1ccccc1-2 [compound 22, A 943931]						Emax (hH4R [2]; [16]): -63 ± 7%; Emax (rH4R [3]): -6%
C[C@@H](N)Cc1cnc[nH]1 [compound 2, (R)-α-Methylhistamine]	103 ± 4%	98 ± 1%			96 ± 2%	mH4R / pEC50 or (pKB) (mH4R [6]): 6.16±0.07; rH4R / pEC50 or (pKB) (rH4R [7]): 5.60±0.12
CNCCc1cnc[nH]1 [compound 4, N^α-Methylhistamine]	98 ± 3%	97 ± 2%	0.575 µM	0.589 µM	98 ± 4%	
Nc1nc2c(c(N3CCNCC3)n1)CCC1=C2[C@H]2CCCC[C@H]2O1 [compound 23, A 987306]						Emax (hH4R [2]; [16]): -62 ± 7%; Emax (rH4R [3]): -8%
N#CNC(=NCCCCc1cnc[nH]1)NCCSc1ccccc1 [UR-PI376 (14)]	102 ± 2%	51 ± 5%				Emax (rH4R [3]): 8 ± 10%
CN1CCN(c2cc(NCc3c(Cl)cccc3Cl)nc(N)n2)CC1 [compound 16, ST-1006]	91 ± 1%	37 ± 4%				Emax (rH4R [13]): -55 ± 12%
c1nc(CC2CCNCC2)c[nH]1 [compound 6, Immepip]	98 ± 2%	95 ± 3%	0.141 µM	0.0676 µM	93 ± 5%	
